# Read-outs that look alike come from different tables or passages of the source.
# Test system: HSV-1
# Experiment: Plaque reduction assay, HSV-1 clinical isolates on Vero cells
# Assay type: cell-based
# Details: Human alphaherpesvirus 1, Vero
# From the text: Viral isolates were used to infect a sub-confluent monolayer of Vero cells at a concentration of 75 or 50 plaque forming units (PFU) per well for HSV-1 and HSV-2, respectively. […] CMC medium typically used to create a semisolid interface and prevents indiscrimate viral spreading. Other materials (e.g. agar) may also be used to create this interface.
# Cells were fixed with 10% formalin and stained with crystal violet before enumeration of the plaques (microscopic observation or use of fluorescent antibodies for detection is also suitable). The data obtained from these experiments were then expressed as percent inhibition of viral infectivity relative to the no drug control.
# Definitions of phenotypic drug susceptibility classification as sensitive or resistant were as follows: ACV, <3 μM or >40 μM; PCV, <10 μM or >40 μM; CDV, <24 μM or >30 μM; FOS, <250 μM or >400 μM; and ACV, <6.5 μM or >40 μM; PCV, <38 μM or >40 μM; FOS, <250 μM or >400 μM for HSV-1 and HSV-2, respectively. Any IC50 values falling in between these sensitive and resistant cut-offs were reported as intermediate resistance.
# The phenotype (i.e. reactivity to a drug) of the virus was characterised by the plaque reduction assay as described above.
smiles,measurement,setting,value
"Nc1nc2c(ncn2CCC(CO)CO)c(=O)[nH]1 [Penciclovir, penciclovir]",IC50,"isolate HPG033, HSV-1 TK I358L (1072A>C), also TK T287M, read-out: Drug susceptibility (IC50 value)",> 160 µM
same,IC50,"isolate HPG033, HSV-1 TK I358L (1072A>C), also TK T287M, read-out: Drug susceptibility Penciclovir (PCV)",> 40 µM
same,IC50,"isolate HPG033, HSV-1 pol N1046T (3137A>C), also TK T287M, pol A1169T, read-out: Drug susceptibility (IC50 value)",> 160 µM
same,IC50,"isolate HPG033, HSV-1 pol N1046T (3137A>C), also TK T287M, pol A1169T, read-out: Drug susceptibility Penciclovir (PCV)",> 40 µM
same,IC50,"isolate HPG035, HSV-1 pol S239L (716C>T), also pol S724N, read-out: Drug susceptibility (IC50 value)",14.6 µM
same,IC50,"isolate HPG035, HSV-1 pol S239L (716C>T), also pol S724N, read-out: Drug susceptibility Penciclovir (PCV)",10 to 40 µM
same,IC50,"isolate HPG037, HSV-1 TK L69M (205>A), also TK Y239H, read-out: Drug susceptibility Penciclovir (PCV)",> 40 µM
same,IC50,"isolate HPG037, HSV-1 TK R256W (766C>T), read-out: Drug susceptibility (IC50 value)",> 160 µM
same,IC50,"isolate HPG037, HSV-1 TK R256W (766C>T), read-out: Drug susceptibility Penciclovir (PCV)",> 40 µM
same,IC50,"isolate HPG037, HSV-1 TK Y239H (715T>C), read-out: Drug susceptibility (IC50 value)",> 160 µM
same,IC50,"isolate HPG037, HSV-1 TK Y239H (715T>C), read-out: Drug susceptibility Penciclovir (PCV)",> 40 µM
same,IC50,"isolate HPG039, HSV-1 TK 85* or H58fs (169delC, 170delC, 171delC, or 172delC), read-out: Drug susceptibility (IC50 value)",158 µM
same,IC50,"isolate HPG039, HSV-1 TK 85* or H58fs (169delC, 170delC, 171delC, or 172delC), read-out: Drug susceptibility Penciclovir (PCV)",> 40 µM
same,IC50,"isolate HPG040, HSV-1 pol S911N (2732G>A), also TK deletion (C) nt 896-900, pol A1169T, read-out: Drug susceptibility (IC50 value)",> 160 µM
same,IC50,"isolate HPG040, HSV-1 pol S911N (2732G>A), also TK deletion (C) nt 896-900, pol A1169T, read-out: Drug susceptibility Penciclovir (PCV)",> 40 µM
same,IC50,"isolate HPG041, HSV-1 pol S911N (2732G>A), also pol A1169T, read-out: Drug susceptibility (IC50 value)",3 µM
same,IC50,"isolate HPG041, HSV-1 pol S911N (2732G>A), also pol A1169T, read-out: Drug susceptibility Penciclovir (PCV)",< 10 µM
same,IC50,"isolate HPG042, HSV-1 pol A972V (2915C>T), also TK deletion (C) nt 881-885, pol A1169T, read-out: Drug susceptibility (IC50 value)",> 160 µM
same,IC50,"isolate HPG042, HSV-1 pol A972V (2915C>T), also TK deletion (C) nt 881-885, pol A1169T, read-out: Drug susceptibility Penciclovir (PCV)",> 40 µM
same,IC50,"isolate HPG042, HSV-1 pol G22R (64G>A), also TK deletion (C) nt 881-885, pol A1169T, read-out: Drug susceptibility (IC50 value)",> 160 µM
same,IC50,"isolate HPG042, HSV-1 pol G22R (64G>A), also TK deletion (C) nt 881-885, pol A1169T, read-out: Drug susceptibility Penciclovir (PCV)",> 40 µM
same,IC50,"isolate HPG043, HSV-1 TK 183* (437_438insA), read-out: Drug susceptibility (IC50 value)",> 160 µM
same,IC50,"isolate HPG043, HSV-1 TK 183* (437_438insA), read-out: Drug susceptibility Penciclovir (PCV)",> 40 µM
same,IC50,"isolate HPG045, HSV-1 TK L49R (146T>G), read-out: Drug susceptibility (IC50 value)",> 160 µM
same,IC50,"isolate HPG045, HSV-1 TK L49R (146T>G), read-out: Drug susceptibility Penciclovir (PCV)",> 40 µM
same,IC50,"isolate HPG045, HSV-1 pol L419I (1255C>A), also TK L49R, pol A1169T, read-out: Drug susceptibility (IC50 value)",> 160 µM
same,IC50,"isolate HPG045, HSV-1 pol L419I (1255C>A), also TK L49R, pol A1169T, read-out: Drug susceptibility Penciclovir (PCV)",> 40 µM
same,IC50,"isolate HPG046, HSV-1 TK I166N (497T>A), read-out: Drug susceptibility (IC50 value)",98.5 µM
same,IC50,"isolate HPG046, HSV-1 TK I166N (497T>A), read-out: Drug susceptibility Penciclovir (PCV)",> 40 µM
same,IC50,"isolate HPG047, HSV-1 pol E680 (2039A>C), also TK deletion (C) nt 548-553, pol A1169T, read-out: Drug susceptibility Penciclovir (PCV)",> 40 µM
same,IC50,"isolate HPG050, HSV-1 TK Q34* (100C>T), read-out: Drug susceptibility (IC50 value)",> 160 µM
same,IC50,"isolate HPG050, HSV-1 TK Q34* (100C>T), read-out: Drug susceptibility Penciclovir (PCV)",> 40 µM
same,IC50,"isolate HPG051, HSV-1 pol D83A (248A>C), also TK R176stop, read-out: Drug susceptibility (IC50 value)",> 160 µM
same,IC50,"isolate HPG051, HSV-1 pol D83A (248A>C), also TK R176stop, read-out: Drug susceptibility Penciclovir (PCV)",> 40 µM
same,IC50,"isolate HPG052, HSV-1 TK Q34* (100C>T), read-out: Drug susceptibility (IC50 value)",25 µM
same,IC50,"isolate HPG052, HSV-1 TK Q34* (100C>T), read-out: Drug susceptibility Penciclovir (PCV)",10 to 40 µM
same,IC50,"isolate HPG053, HSV-1 pol L802R + A834S (2405T>G, 2500G>T), also TK R176W, read-out: Drug susceptibility Penciclovir (PCV)",> 40 µM
same,IC50,"isolate HPG053, HSV-1 pol S911N (2732G>A), also TK R176W, pol A1169T, read-out: Drug susceptibility (IC50 value)",> 160 µM
same,IC50,"isolate HPG053, HSV-1 pol S911N (2732G>A), also TK R176W, pol A1169T, read-out: Drug susceptibility Penciclovir (PCV)",> 40 µM
same,IC50,"isolate HPG054, HSV-1 pol E992K (2974G>A), also TK insert (G) nt 430-436, pol A1169T, read-out: Drug susceptibility (IC50 value)",> 160 µM
same,IC50,"isolate HPG054, HSV-1 pol E992K (2974G>A), also TK insert (G) nt 430-436, pol A1169T, read-out: Drug susceptibility Penciclovir (PCV)",> 40 µM
same,IC50,"isolate HPG055, HSV-1 TK V204G (611T>G), also pol A1169AT, read-out: Drug susceptibility (IC50 value)",9.34 µM
same,IC50,"isolate HPG055, HSV-1 TK V204G (611T>G), also pol A1169AT, read-out: Drug susceptibility Penciclovir (PCV)",< 10 µM
same,IC50,"read-out: Drug susceptibility (IC50 value), isolate HPG005, HSV-1 TK A192T (574G>A)",5.19 µM
same,IC50,"read-out: Drug susceptibility (IC50 value), isolate HPG006, HSV-1 pol G121S (361G>A), also a TK resistance mutation (footnote a)",> 160 µM
same,IC50,"read-out: Drug susceptibility (IC50 value), isolate HPG012, HSV-1 pol G985E (2954G>A), also TK A93V",9.67 µM
same,IC50,"read-out: Drug susceptibility (IC50 value), isolate HPG016, HSV-1 pol A1169T (3505G>A)",7.19 µM
same,IC50,"read-out: Drug susceptibility (IC50 value), isolate HPG037, HSV-1 TK L69M (205>A), also TK Y239H",> 160 µM
same,IC50,"read-out: Drug susceptibility (IC50 value), isolate HPG042, HSV-1 TK frameshift (881delC to 885delC)",> 160 µM
same,IC50,"read-out: Drug susceptibility (IC50 value), isolate HPG047, HSV-1 pol E680 (2039A>C), also TK deletion (C) nt 548-553, pol A1169T",> 160 µM
same,IC50,"read-out: Drug susceptibility Penciclovir (PCV), isolate HPG005, HSV-1 TK A192T (574G>A)",< 10 µM
same,IC50,"read-out: Drug susceptibility Penciclovir (PCV), isolate HPG006, HSV-1 pol G121S (361G>A), also a TK resistance mutation (footnote a)",> 40 µM
same,IC50,"read-out: Drug susceptibility Penciclovir (PCV), isolate HPG012, HSV-1 pol G985E (2954G>A), also TK A93V",10 to 40 µM
same,IC50,"read-out: Drug susceptibility Penciclovir (PCV), isolate HPG016, HSV-1 pol A1169T (3505G>A)",< 10 µM
same,IC50,"read-out: Drug susceptibility Penciclovir (PCV), isolate HPG042, HSV-1 TK frameshift (881delC to 885delC)",> 40 µM
